Key:
human TLR9 = target: T1, human TLR9 (Homo sapiens, UniProt Q9NR96); experiment: TLR9 inhibition reporter assay (HEK-Blue cells, SEAP reporter, ODN2006 stimulation); type: cell-based; conditions: HEK-Blue cells overexpressing human TLR9, ODN2006 5 nM
T1 construct: host or cells: HEK-Blue cells
T1 sequence (Q9NR96 26-1032): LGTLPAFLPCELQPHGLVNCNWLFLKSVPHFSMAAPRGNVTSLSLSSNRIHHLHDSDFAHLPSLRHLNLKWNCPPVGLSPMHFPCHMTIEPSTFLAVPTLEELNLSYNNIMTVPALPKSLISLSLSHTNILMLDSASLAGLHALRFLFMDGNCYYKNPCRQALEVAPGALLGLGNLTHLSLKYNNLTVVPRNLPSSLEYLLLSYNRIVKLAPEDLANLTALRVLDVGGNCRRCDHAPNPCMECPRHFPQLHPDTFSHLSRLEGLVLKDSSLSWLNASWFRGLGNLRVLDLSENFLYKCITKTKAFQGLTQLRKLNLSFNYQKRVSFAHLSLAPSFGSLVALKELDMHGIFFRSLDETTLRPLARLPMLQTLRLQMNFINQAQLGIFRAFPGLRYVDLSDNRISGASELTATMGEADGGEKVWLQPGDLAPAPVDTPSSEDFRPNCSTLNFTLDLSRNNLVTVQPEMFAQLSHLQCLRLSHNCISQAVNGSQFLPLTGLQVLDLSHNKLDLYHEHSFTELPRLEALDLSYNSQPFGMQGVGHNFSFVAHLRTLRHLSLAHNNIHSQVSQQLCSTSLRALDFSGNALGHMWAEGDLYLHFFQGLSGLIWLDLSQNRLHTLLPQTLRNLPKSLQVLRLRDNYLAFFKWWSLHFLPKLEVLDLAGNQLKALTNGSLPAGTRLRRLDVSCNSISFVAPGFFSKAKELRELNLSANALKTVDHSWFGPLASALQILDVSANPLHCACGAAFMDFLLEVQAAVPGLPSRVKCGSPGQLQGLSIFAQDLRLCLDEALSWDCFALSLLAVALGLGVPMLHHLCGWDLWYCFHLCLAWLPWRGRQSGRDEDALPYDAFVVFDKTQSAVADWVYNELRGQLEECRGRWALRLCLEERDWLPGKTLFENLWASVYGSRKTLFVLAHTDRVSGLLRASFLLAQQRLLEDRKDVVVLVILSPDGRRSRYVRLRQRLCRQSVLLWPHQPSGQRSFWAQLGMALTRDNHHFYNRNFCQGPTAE
Description: (§1) TLR7/8/9 Inhibition Reporter Assays
HEK-Blue™-cells (Invivogen) overexpressing human TLR7, TLR8 or TLR9 receptors were used for screening inhibitors of these receptors using an inducible SEAP (secreted embryonic alkaline phosphatase) reporter gene under the control of the IFN-β minimal promoter fused to five NF-κB and AP-1-binding sites. Briefly, cells are seeded into Greiner 384 well plates (15000 cells per well for TLR7, 20,000 for TLR8 and 25,000 for TLR9) and then treated with test compounds in DMSO to yield a final dose response concentration range of 0.05 nM-50 μM. After a 30 minute compound pre-treatment at room temperature, the cells are then stimulated with a TLR7 ligand (gardiquimod at a final concentration of 7.5 μM), TLR8 ligand (R848 at a final concentration of 15.9 μM) or TLR9 ligand (ODN2006 at a final concentration of 5 nM) to activate NF-κB and AP-1 which induce the production of SEAP. After a 22 hour incubation at 37° C., 5% CO2, SEAP levels are determined with the addition of HEK-Blue™ Detection reagent (Invivogen), a cell culture medium that allows for detection of SEAP, according to manufacturer's specifications. The percent inhibition is determined as the % reduction in the HEK-Blue signal present in wells treated with agonist plus DMSO alone compared to wells treated with a known inhibitor.

human TLR7 = target: T2, human TLR7 (Homo sapiens, UniProt Q9NYK1); experiment: TLR7 inhibition reporter assay (HEK-Blue cells, SEAP reporter, gardiquimod stimulation); type: cell-based; conditions: HEK-Blue cells overexpressing human TLR7, gardiquimod 7.5 μM
T2 construct: host or cells: HEK-Blue cells
T2 sequence (Q9NYK1 27-1049): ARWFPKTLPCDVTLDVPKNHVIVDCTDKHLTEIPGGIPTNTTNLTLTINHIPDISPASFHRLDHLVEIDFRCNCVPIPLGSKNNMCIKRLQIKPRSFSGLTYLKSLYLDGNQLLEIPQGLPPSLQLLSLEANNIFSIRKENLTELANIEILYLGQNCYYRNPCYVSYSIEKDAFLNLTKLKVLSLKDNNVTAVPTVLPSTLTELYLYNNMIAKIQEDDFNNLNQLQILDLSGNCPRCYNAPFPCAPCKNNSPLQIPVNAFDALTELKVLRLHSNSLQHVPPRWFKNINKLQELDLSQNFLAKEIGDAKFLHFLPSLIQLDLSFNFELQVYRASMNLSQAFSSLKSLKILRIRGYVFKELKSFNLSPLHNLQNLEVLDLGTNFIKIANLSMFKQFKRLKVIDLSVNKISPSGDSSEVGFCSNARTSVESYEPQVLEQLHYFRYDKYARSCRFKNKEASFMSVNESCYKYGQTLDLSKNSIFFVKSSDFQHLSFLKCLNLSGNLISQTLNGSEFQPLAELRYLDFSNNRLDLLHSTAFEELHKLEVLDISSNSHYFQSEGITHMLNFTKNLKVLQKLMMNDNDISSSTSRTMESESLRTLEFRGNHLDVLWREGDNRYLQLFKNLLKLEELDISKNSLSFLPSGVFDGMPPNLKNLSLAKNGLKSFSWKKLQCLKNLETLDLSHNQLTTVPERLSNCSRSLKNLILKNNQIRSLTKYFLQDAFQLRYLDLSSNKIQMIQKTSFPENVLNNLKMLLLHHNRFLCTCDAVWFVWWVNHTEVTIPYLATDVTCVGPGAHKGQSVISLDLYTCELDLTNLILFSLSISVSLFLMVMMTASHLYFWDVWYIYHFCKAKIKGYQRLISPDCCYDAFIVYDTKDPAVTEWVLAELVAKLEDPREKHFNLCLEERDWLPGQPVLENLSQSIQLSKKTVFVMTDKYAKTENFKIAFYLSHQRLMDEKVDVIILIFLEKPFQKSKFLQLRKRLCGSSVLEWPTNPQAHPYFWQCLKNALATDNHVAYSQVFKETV
Description: as §1
Briefly, cells are seeded into Greiner 384 well plates (15000 cells per well for TLR7, 20,000 for TLR8 and 25,000 for TLR9) and then treated with test compounds in DMSO to yield a final dose response concentration range of 0.05 nM-50 μM. […] After a 22 hour incubation at 37° C., 5% CO2, SEAP levels are determined with the addition of HEK-Blue™ Detection reagent (Invivogen), a cell culture medium that allows for detection of SEAP, according to manufacturer's specifications. The percent inhibition is determined as the % reduction in the HEK-Blue signal present in wells treated with agonist plus DMSO alone compared to wells treated with a known inhibitor.

## COc1ccc(-c2[nH]c3ccc(C4CCN(Cc5ccc(OCCCN(C)C)cc5)CC4)cc3c2C)cc1OC [Example 38, 3-(4-((4-(2-(3,4-dimethoxyphenyl)-3-methyl-1H-indol-5-yl)piperidin-1-yl)methyl)phenoxy)-N,N-dimethylpropan-1-amine]
Human TLR9
  IC50: 0.21 µM
Human TLR7
  IC50: 0.663 µM

## COc1ccc(-c2[nH]c3ccc(C4CCN(C5CCN(C6CCC6)CC5)CC4)cc3c2C)cc1OC [Example 61, 5-(1′-cyclobutyl-[1,4′-bipiperidin]-4-yl)-2-(3,4-dimethoxyphenyl)-3-methyl-1H-indole]
Human TLR9
  IC50: 0.555 µM
Human TLR7
  IC50: 1.59 µM

## CCc1c(-c2ccc(OC)c(OC)c2)[nH]c2ccc(C3CCN(C(=O)CNC45CC6CC(CC(O)(C6)C4)C5)CC3)cc12 [Example 163, 1-(4-(2-(3,4-dimethoxyphenyl)-3-ethyl-1H-indol-5-yl)piperidin-1-yl)-2-(((1r,3s,5R,7S)-3-hydroxyadamantan-1-yl)amino) ethan-1-one]
Human TLR9
  IC50: 2.17 µM
Human TLR7
  IC50: 0.28 µM

## COc1ccc(-c2[nH]c3ccc(C4CCN(Cc5cc6ccccc6n5C)CC4)cc3c2C)cc1OC [Example 33, 2-(3,4-dimethoxyphenyl)-3-methyl-5-(1-((1-methyl-1H-indol-2-yl)methyl)piperidin-4-yl)-1H-indole]
Human TLR9
  IC50: 3.72 µM
Human TLR7
  IC50: ≥ 50 µM

## CNCCCN1CCC(c2ccc3[nH]c(-c4ccc(OC)c(OC)c4)c(C)c3c2)CC1 [Example 102, 3-(4-(2-(3,4-dimethoxyphenyl)-3-methyl-1H-indol-5-yl)piperidin-1-yl)-N-methylpropan-1-amine]
Human TLR9
  IC50: 0.382 µM
Human TLR7
  IC50: 0.559 µM

## CCOC(=O)N1CCC(N2CCC(c3ccc4[nH]c(-c5ccc(OC)c(OC)c5)c(C)c4c3)CC2)C1 (stereo not drawn) [Example 13, ethyl 3-(4-(2-(3,4-dimethoxyphenyl)-3-methyl-1H-indol-5-yl)piperidin-1-yl) pyrrolidine-1-carboxylate]
Human TLR9
  IC50: 1.08 µM
Human TLR7
  IC50: ≥ 50 µM

## CCNCC(=O)N1CCC(c2ccc3[nH]c(-c4ccc(OC)c(OC)c4)c(C)c3c2)CC1 [Example 113, 1-(4-(2-(3,4-dimethoxyphenyl)-3-methyl-1H-indol-5-yl)piperidin-1-yl)-2-(ethylamino)ethan-1-one]
Human TLR9
  IC50: 0.885 µM
Human TLR7
  IC50: 0.371 µM

## CCCC[C@@H](CO)NCC(=O)N1CCC(c2ccc3[nH]c(-c4ccc(OC)c(OC)c4)c(CC)c3c2)CC1 [Example 174, (S)-1-(4-(2-(3,4-dimethoxyphenyl)-3-ethyl-1H-indol-5-yl)piperidin-1-yl)-2-((1-hydroxyhexan-2-yl)amino)ethan-1-one]
Human TLR9
  IC50: 2.57 µM
Human TLR7
  IC50: 1.18 µM

## COc1ccc(-c2[nH]c3ccc(C4CCN(C5CCN(CCC(C)O)CC5)CC4)cc3c2C)cc1OC (stereo not drawn) [Example 56, 4-(4-(2-(3,4-dimethoxyphenyl)-3-methyl-1H-indol-5-yl)-[1,4′-bipiperidin]-1′-yl)butan-2-ol]
Human TLR9
  IC50: 0.217 µM
Human TLR7
  IC50: 0.409 µM

## COc1ccc(-c2[nH]c3ccc(C4CCN(Cc5ccc(-n6cncn6)cc5)CC4)cc3c2C)cc1OC [Example 34, 5-(1-(4-(1H-1,2,4-triazol-1-yl)benzyl)piperidin-4-yl)-2-(3,4-dimethoxyphenyl)-3-methyl-1H-indole]
Human TLR9
  IC50: 0.347 µM
Human TLR7
  IC50: 0.673 µM

## COc1ccc(-c2[nH]c3ccc(C4CCN(CC5CCOCC5)CC4)cc3c2C)cc1OC [Example 17, 2-(3,4-dimethoxyphenyl)-3-methyl-5-(1-((tetrahydro-2H-pyran-4-yl)methyl)piperidin-4-yl)-1H-indole]
Human TLR9
  IC50: 0.729 µM
Human TLR7
  IC50: 0.368 µM

## COc1ccc(-c2[nH]c3ccc(C4CCN(C5CCN(c6ccccc6)C5)CC4)cc3c2C)cc1OC (stereo not drawn) [Example 8, 2-(3,4-dimethoxyphenyl)-3-methyl-5-(1-(1-phenylpyrrolidin-3-yl)piperidin-4-yl)-1H-indole]
Human TLR9
  IC50: ≥ 50 µM
Human TLR7
  IC50: ≥ 50 µM

## COc1ccc(-c2[nH]c3ccc(C4CCN(C5CCN(CC(C)C)C5)CC4)cc3c2C)cc1OC (stereo not drawn) [Example 85, 2-(3,4-dimethoxyphenyl)-5-(1-(1-isobutylpyrrolidin-3-yl)piperidin-4-yl)-3-methyl-1H-indole]
Human TLR9
  IC50: 0.247 µM
Human TLR7
  IC50: 0.907 µM

## COc1ccc(-c2[nH]c3ccc(C4CCN(C5CCCC(N)C5)CC4)cc3c2C)cc1OC (stereo not drawn) [Example 105, 3-(4-(2-(3,4-dimethoxyphenyl)-3-methyl-1H-indol-5-yl)piperidin-1-yl)cyclohexan-1-amine]
Human TLR9
  IC50: 0.385 µM
Human TLR7
  IC50: 0.144 µM

## CCc1c(-c2ccc(OC)c(OC)c2)[nH]c2ccc(C3CCN(C(=O)CN4CCN(C(=O)C5CCCO5)CC4)CC3)cc12 (stereo not drawn) [Example 172, 1-(4-(2-(3,4-dimethoxyphenyl)-3-ethyl-1H-indol-5-yl)piperidin-1-yl)-2-(4-(tetrahydrofuran-2-carbonyl)piperazin-1-yl)ethan-1-one]
Human TLR9
  IC50: 19.3 µM
Human TLR7
  IC50: 0.263 µM

## COc1ccc(-c2[nH]c3ccc(C4CCN(Cc5nccs5)CC4)cc3c2C(C)C)cc1OC [Example 261, 2-((4-(2-(3,4-dimethoxyphenyl)-3-isopropyl-1H-indol-5-yl)piperidin-1-yl)methyl)thiazole]
Human TLR9
  IC50: 5.76 µM
Human TLR7
  IC50: 0.18 µM

## CCc1c(-c2ccc(OC)c(OC)c2)[nH]c2ccc(C3CCN(C(=O)CNCC(C)(C)CO)CC3)cc12 [Example 164, 1-(4-(2-(3,4-dimethoxyphenyl)-3-ethyl-1H-indol-5-yl)piperidin-1-yl)-2-((3-hydroxy-2,2-dimethylpropyl)amino)ethan-1-one]
Human TLR9
  IC50: 2.13 µM
Human TLR7
  IC50: 0.16 µM

## COc1ccc(-c2[nH]c3ccc(C4CCN(Cc5cccnc5)CC4)cc3c2C)cc1OC [Example 47, 2-(3,4-dimethoxyphenyl)-3-methyl-5-(1-(pyridin-3-ylmethyl)piperidin-4-yl)-1H-indole]
Human TLR9
  IC50: 1.08 µM
Human TLR7
  IC50: 0.589 µM

Source: US11180474B2 (BRISTOL-MYERS SQUIBB COMPANY, priority 2016, dated 2021)
